Assays:
[1] = target: T1, SOS1 catalytic domain (residues 564-1049) (Homo sapiens, UniProt Q07889); experiment: Binding affinity to SOS1 using Surface Plasmon Resonance (SPR); conditions: avi-tagged SOS1 catalytic domain immobilized on sensor chip; read-out: SOS1 SPR Equilibrium Kd
T1 construct: SOS1 catalytic domain (residues 564-1049) immobilized on a sensor chip
T1 sequence (Q07889 564-1049): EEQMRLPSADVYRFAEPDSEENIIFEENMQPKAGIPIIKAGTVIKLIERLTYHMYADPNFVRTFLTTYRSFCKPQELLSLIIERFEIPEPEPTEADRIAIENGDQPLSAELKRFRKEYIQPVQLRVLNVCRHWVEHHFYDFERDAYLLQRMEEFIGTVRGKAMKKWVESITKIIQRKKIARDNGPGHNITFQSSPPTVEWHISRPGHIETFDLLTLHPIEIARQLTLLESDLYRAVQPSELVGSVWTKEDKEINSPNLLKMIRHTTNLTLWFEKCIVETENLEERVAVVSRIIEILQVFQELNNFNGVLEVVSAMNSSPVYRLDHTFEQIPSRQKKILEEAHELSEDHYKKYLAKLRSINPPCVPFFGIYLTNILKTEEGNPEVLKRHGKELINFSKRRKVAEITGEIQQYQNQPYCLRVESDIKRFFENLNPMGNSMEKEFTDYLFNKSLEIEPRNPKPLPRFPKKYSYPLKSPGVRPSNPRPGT
From the text: Potency Assay: Measurement of the Binding Affinity of Compounds of the Invention to SOS! using Surface Plasmon Resonance (SPR)
The purpose of the SPR assay was to measure the direct binding of compounds to SOS1 catalytic domain (residues 564-1049) immobilized on a sensor chip. Data was reported as equilibrium dissociation constant (Kd) values.
Using a GE Biacore 8K SPR instrument, avi-tagged SOS1 catalytic domain protein was immobilized to a level of approximately 6000 response units (RU) on a streptavidin-coated SPR sensor chip in assay buffer containing 0.01 M HEPES, 0.15 M NaCl and 0.05% v/v Surfactant P20. In assay buffer containing 2% DMSO, concentration series of test compounds were generated spanning 5 μM to 4.9 nM over ten 2-fold dilutions. For each test compound, a separate 0 μM sample was generated for use during subsequent double reference subtraction. Serially for each test compound, individual dilution samples were flowed over the immobilized SOS1 protein at a flow rate of 50 μL/minute to monitor the association with SOS1. Dissociation of bound test compound from the SOS1 protein was immediately monitored by flowing assay buffer over the sensor surface and monitoring the decrease in binding signal back to the baseline level seen in the absence of compound. This was repeated for all compound dilutions in each series. The binding level response for each test compound concentration was noted immediately prior to the end of the association phase, and a secondary plot generated showing binding response level versus test compound concentration generated for each compound dilution series.

[2] = target: T2, SOS1 nucleotide exchange of KRAS (catalytic domain of SOS1, residues 564-1049; wild-type KRAS) (Homo sapiens, UniProt Q07889); experiment: Mode of Action Assay: Inhibition of SOS1 Nucleotide Exchange Activity (TR-FRET); type: biochemical; conditions: TR-FRET signal
T2 construct: tagless catalytic domain of SOS1 (residues 564-1049)
T2 sequence (Q07889 564-1049): T1 sequence (Q07889 564-1049)
Protocol: The purpose of this assay was to characterize the inhibitory activity of compounds on SOS1 nucleotide exchange of KRAS. Data was reported as IC50 values based on the TR-FRET signal.
Note—the following protocol describes a procedure for monitoring the inhibition of SOS1 nucleotide exchange activity of wild-type KRAS in response to a compound of the invention. Other KRAS mutants and RAS isoforms maybe employed.
In assay buffer containing 20 mM HEPES, pH 7.5, 150 mM NaCl, 5 mM MgCl2, 0.05% Tween-20, 0.1% BSA, 1 mM DTT, concentration series of test compounds were generated spanning 100 μM to 1.7 nM over eleven 3-fold serial dilutions in a 384-well assay plate at a volume of 20 μL. The purified tagless catalytic domain of SOS1 (residues 564-1049) was first diluted in assay buffer at a concentration of 100 nM, and then 20 μL of the SOS1 containing solution was directly dispensed into compound plates. The SOS1/compound mixture was incubated at room temperature with constant mixing on an orbital shaker for 20 minutes to allow the reaction to reach equilibrium. A KRAS mixture was prepared by diluting 66.7 nM avi-tagged KRAS (residue 1-169), 3.33 nM Streptavidin-Tb and 333 nM EDA-GTP-DY-647P1 in assay buffer. This mixture was prepared immediately before addition to the SOS1/compound mixture to prevent intrinsic nucleotide exchange. Then 5 μL of the pre-incubated SOS1/compound mixture and 7.5 μL of the KRAS mixture were added sequentially in a 384-well low volume black round bottom plate and incubated at room temperature with constant shaking for 30 minutes. Time-resolved fluorescence was measured on a PerkinElmer Envision plate reader. DMSO and 10 μM of compound (i) were used as negative and positive controls, respectively.
Three replicates were performed for each compound. Data were normalized by the following: (Positive control—Sample signal)/(Positive control—negative control)*100. The data were fit using a four-parameter logistic fit.

[3] = system: cellular pERK in PC-9 cells (EGFR Ex19Del); experiment: Potency Assay: pERK; type: cell-based; conditions: Homo sapiens; PC-9 cells (EGFR Ex19Del), 1 hour incubation, AlphaLISA p-ERK1/2; read-out: SOS1 pERK IC50
From the text: The purpose of this assay is to measure the ability of test compounds to inhibit SOS1 function in cells. SOS1 activates RAS proteins by catalyzing the conversion of […] to […] in response to receptor tyrosine kinase activation. Activation of RAS induces a sequence of cellular signaling events that results in increased phosphorylation of ERK at […] (pERK). The procedure described below measures the level of cellular pERK in response to test compounds in PC-9 cells (EGFR Ex[…]). PC-9 cells were grown and maintained using media and procedures recommended by the ATCC. On the day prior to compound addition, cells were plated in 384-well cell culture plates (40 μL/well) and grown overnight in a 37° C., 5% CO2 incubator. Test compounds were prepared in 10, 3-fold dilutions in DMSO, with a top concentration of 10 mM. On the day of the assay, 40 nL of test compound was added to each well of cell culture plate using an Echo550 liquid handler (LabCyte). Concentrations of test compound were tested in duplicate with highest test concentration being 10 μM. After compound addition, cells were incubated for 1 hour at 37° C., 5% CO2. Following incubation, culture medium was removed and cells were washed once with phosphate buffered saline. Cellular pERK level was determined using the AlphaLISA SureFire Ultra p-ERK1/2 Assay Kit (PerkinElmer). Cells were lysed in 25 μL lysis buffer, with shaking at 600 RPM at room temperature for 15 minutes. Lysate (10 μL) was transferred to a 384-well Opti-plate (PerkinElmer) and 5 μL acceptor mix was added. The plate was centrifuged at 1000 RPM for 1 minute, and incubated in the dark for 2 hours. Following this incubation, 5 μL of donor mix was added, the plate was sealed and centrifuged at 1000 RPM for 1 minute, and the mixture was incubated for 2 hours at room temperature. Signal was read on an Envision plate reader (PerkinElmer) using standard AlphaLISA settings. Analysis of raw data was carried out in Excel (Microsoft) and Prism (GraphPad). Signal was plotted vs. the decadal logarithm of compound concentration, and IC50 was determined by fitting a 4-parameter sigmoidal concentration response model.

SMILES	Kd [1] [nM]	IC50 [2] [nM]	IC50 [3] [nM]
C[C@@H](Nc1ncnc2cn(CC3CCOC3)cc12)c1cc(N)cc(C(F)(F)F)c1 (stereo partly drawn) [Example 32, N-[(1R)-1-[3-amino-5-(trifluoromethyl)phenyl]ethyl]-6-(tetrahydrofuran-3-ylmethyl)pyrrolo[3,4-d]pyrimidin-4-amine]	≤ 400		
Cc1nc(N[C@H](C)c2cc(N)cc(C(F)(F)F)c2)c2cc(CN3CCOCC3)cn2n1 [Example 34, N-[(1R)-1-[3-amino-5-(trifluoromethyl)phenyl]ethyl]-2-methyl-6-(morpholinomethyl)pyrrolo[2,1-f][1,2,4]triazin-4-amine]	> 400	> 1000	
C[C@@H](Nc1ncnc2c1cc(C1CCNCC1)n2C)c1cc(N)cc(C(F)(F)F)c1 [Example 38, N-[(1R)-1-[3-amino-5-(trifluoromethyl)phenyl]ethyl]-7-methyl-6-(4-piperidyl)pyrrolo[2,3-d]pyrimidin-4-amine]			> 1000
CC(=O)N1CCN(c2cc3c(N[C@H](C)c4cc(N)cc(C(F)(F)F)c4)ncnn3c2)CC1 [Example 43, 1-[4-[4-[[(1R)-1-[3-amino-5-(trifluoromethyl)phenyl]ethyl]amino]pyrrolo[2,1-f][1,2,4]triazin-6-yl]piperazin-1-yl]ethanone]	> 400	> 1000	
COc1cc2c(N[C@H](C)c3cc(N)cc(C(F)(F)F)c3)ncnn2c1 [Example 44, N-[(1R)-1-[3-amino-5-(trifluoromethyl)phenyl]ethyl]-6-methoxy-pyrrolo[2,1-f][1,2,4]triazin-4-amine]	> 400	> 1000	
CC(=O)N1CCN(c2cc3c(N[C@H](C)c4cccc(C(F)(F)F)c4)ncnn3c2)CC1 [Example 45, 1-[4-[4-[[(1R)-1-[3-(trifluoromethyl)phenyl]ethyl]amino]pyrrolo[2,1-f][1,2,4]triazin-6-yl]piperazin-1-yl]ethenone]	≤ 400	> 1000	
Cc1nc(N[C@H](C)c2cc(N)cc(C(F)(F)F)c2)c2cc(C3=CCNCC3)sc2n1 [Example 46, N-[(1R)-1-[3-amino-5-(trifluoromethyl)phenyl]ethyl]-2-methyl-6-(1,2,3,6-tetrahydropyridin-4-yl)thieno[2,3-d]pyrimidin-4-amine]		> 1000	
C[C@@H](Nc1ccnc2cc(C3=CCNCC3)nn12)c1cc(N)cc(C(F)(F)F)c1 [Example 52, N-[(1R)-1-[3-amino-5-(trifluoromethyl)phenyl]ethyl]-2-(1,2,3,6-tetrahydropyridin-4-yl)pyrazolo[1,5-a]pyrimidin-7-amine]	≤ 400	> 1000	
C[C@@H](Nc1cc(C(F)(F)F)cn2nc(C3=CCNCC3)nc12)c1cc(N)cc(C(F)(F)F)c1 [Example 54, N-[(1R)-1-[3-amino-5-(trifluoromethyl)phenyl]ethyl]-2-(1,2,3,6-tetrahydropyridin-4-yl)-6-(trifluoromethyl)-[1,2,4]triazolo[1,5-a]pyridin-8-amine]		> 1000	
C[C@@H](Nc1cccc2nc(C3=CCNCC3)nn12)c1cc(N)cc(C(F)(F)F)c1 [Example 55, N-[(1R)-1-[3-amino-5-(trifluoromethyl)phenyl]ethyl]-2-(1,2,3,6-tetrahydropyridin-4-yl)-[1,2,4]triazolo[1,5-a]pyridin-5-amine]		> 1000	
Cc1cn2nc(C(=O)N3CCOCC3)cc2c(N[C@H](C)c2cc(N)cc(C(F)(F)F)c2)n1 [Example 58., 60.]	> 400	> 1000	
Cc1cn2nc(C(=O)N3CCN(C)CC3)cc2c(N[C@H](C)c2cc(N)cc(C(F)(F)F)c2)n1 [Example 59]	≤ 400	> 1000	
Cc1nc(N[C@H](C)c2cc(N)cc(C(F)(F)F)c2)c2cc(-c3ccnc(N4CCOCC4)c3)cn2n1 [Example 63, N-[(1R)-1-[3-amino-5-(trifluoromethyl)phenyl]ethyl]-2-methyl-6-[2-(morpholin-4-yl)pyridin-4-yl]pyrrolo[2,1-f][1,2,4]triazin-4-amine]	≤ 400	> 1000	
COc1ncccc1-c1cc2c(N[C@H](C)c3cc(N)cc(C(F)(F)F)c3)nc(C)nn2c1 [Example 64, N-[(1R)-1-[3-amino-5-(trifluoromethyl)phenyl]ethyl]-6-(2-methoxypyridin-3-yl)-2-methylpyrrolo[2,1-f][1,2,4]triazin-4-amine]	> 400	> 1000	
C[C@@H](Nc1ncnc2c1cc(C1=CCNCC1)n2C)c1cc(N)cc(C(F)(F)F)c1 [Example 67]	≤ 400		
Cc1cn2nc(C(=O)N3CCNCC(F)(F)C3)cc2c(N[C@H](C)c2cc(N)cc(C(F)(F)F)c2)n1 [Example 77]		> 1000	
Cc1cn2nc(C(=O)N3CC(N4CCC4)C3)cc2c(N[C@H](C)c2cc(N)cc(C(F)(F)F)c2)n1 [Example 79]		> 1000	
Cc1cn2nc(C(=O)N3CC4CC(C3)N4C)cc2c(N[C@H](C)c2cc(N)cc(C(F)(F)F)c2)n1 [Example 80]		> 1000	
C[C@@H](Nc1nc(Cl)cc2nc(C(=O)N3CCOCC3)cn12)c1cccc(C(F)(F)CO)c1 [Example 86]	≤ 400	< 1000	
C[C@@H](Nc1nccc2nc(C(=O)N3CC4(CN(CCF)C4)C3)cn12)c1cccc(C(F)F)c1F [Example 92]	≤ 400	< 1000	
C[C@@H](Nc1nccc2nc(C(=O)N3CC4(CN(CC(F)F)C4)C3)cn12)c1cccc(C(F)F)c1F [Example 93]	≤ 400	< 1000	
